According to patent publication US20240116921A1, “LACTAM (HETERO)[…] DERIVATIVES AS INHIBITORS OF ERBB2” (EnLiven Therapeutics, Inc., priority 2020, published 2024):

Experiments:
[1] = target: Ba/F3 ERBB2 A775_G776insYVMA (Homo sapiens, UniProt P04626, DUP772-775, cells depend on it); test: Cell viability assay, Ba/F3 ERBB2 A775_G776insYVMA; assay type: cell-based, mouse; conditions: Ba/F3 ERBB2 YVMA cells, cell viability, 72 hours, CellTiter Glo; Table B5; read-out: Ba/F3 ERBB2 YVMA, IC50
How it was run: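 IL-3-independent Ba/F3 lines stably expressing the human ERBB2 insertion mutants were seeded at 3000 cells/well and exposed to compounds for 72 h at 37 °C, 5% CO2. Viability was read as ATP by CellTiter-Glo luminescence. Curves were fitted by sigmoidal nonlinear regression.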

[2] = target: T1, phosphorylated EGFR (pEGFR) (Homo sapiens, UniProt P00533); test: Detection of phosphorylated EGFR (pEGFR) in EGF-stimulated A431 cells; assay type: cell-based; conditions: A431 cells (10% FBS), 4 hours incubation, EGF 30 ng/mL 10 minutes, AlphaLISA
T1 construct: performed to measure phosphorylated EGFR levels using A431 cells (10% FBS); endogenous in cells; host or cells: A431
How it was run: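 A431 cells in 10% FBS were preincubated with compound for 4 h at 37 °C, then stimulated with EGF (30 ng/mL final) for 10 min. pEGFR in lysates was read by AlphaLISA. % inhibition was calculated against DMSO and staurosporine-treated controls, and IC50 came from a four-parameter curve fit.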

[3] = target: T2, phosphorylated ERBB2 (pERBB2) (Homo sapiens, UniProt P04626); test: Detection of phosphorylated ERBB2 (pERBB2) by ELISA in BT-474 cells; assay type: cell-based; conditions: four hours incubation
T2 construct: endogenous in cells; host or cells: BT-474
How it was run: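 BT-474 cells (2.0×10^4/well) treated 4 h at 37 °C, 5% CO2 with compounds in four-fold dilutions from 10 µM to 0.01 nM. Lysate pERBB2 measured by ELISA with TMB read at 450 nm; % relative activity scaled between no-cell wells and 0.1% DMSO-treated cells.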

Chain of Ba/F3 ERBB2 A775_G776insYVMA (P04626 with tags, fused parts or gaps DUP772-775): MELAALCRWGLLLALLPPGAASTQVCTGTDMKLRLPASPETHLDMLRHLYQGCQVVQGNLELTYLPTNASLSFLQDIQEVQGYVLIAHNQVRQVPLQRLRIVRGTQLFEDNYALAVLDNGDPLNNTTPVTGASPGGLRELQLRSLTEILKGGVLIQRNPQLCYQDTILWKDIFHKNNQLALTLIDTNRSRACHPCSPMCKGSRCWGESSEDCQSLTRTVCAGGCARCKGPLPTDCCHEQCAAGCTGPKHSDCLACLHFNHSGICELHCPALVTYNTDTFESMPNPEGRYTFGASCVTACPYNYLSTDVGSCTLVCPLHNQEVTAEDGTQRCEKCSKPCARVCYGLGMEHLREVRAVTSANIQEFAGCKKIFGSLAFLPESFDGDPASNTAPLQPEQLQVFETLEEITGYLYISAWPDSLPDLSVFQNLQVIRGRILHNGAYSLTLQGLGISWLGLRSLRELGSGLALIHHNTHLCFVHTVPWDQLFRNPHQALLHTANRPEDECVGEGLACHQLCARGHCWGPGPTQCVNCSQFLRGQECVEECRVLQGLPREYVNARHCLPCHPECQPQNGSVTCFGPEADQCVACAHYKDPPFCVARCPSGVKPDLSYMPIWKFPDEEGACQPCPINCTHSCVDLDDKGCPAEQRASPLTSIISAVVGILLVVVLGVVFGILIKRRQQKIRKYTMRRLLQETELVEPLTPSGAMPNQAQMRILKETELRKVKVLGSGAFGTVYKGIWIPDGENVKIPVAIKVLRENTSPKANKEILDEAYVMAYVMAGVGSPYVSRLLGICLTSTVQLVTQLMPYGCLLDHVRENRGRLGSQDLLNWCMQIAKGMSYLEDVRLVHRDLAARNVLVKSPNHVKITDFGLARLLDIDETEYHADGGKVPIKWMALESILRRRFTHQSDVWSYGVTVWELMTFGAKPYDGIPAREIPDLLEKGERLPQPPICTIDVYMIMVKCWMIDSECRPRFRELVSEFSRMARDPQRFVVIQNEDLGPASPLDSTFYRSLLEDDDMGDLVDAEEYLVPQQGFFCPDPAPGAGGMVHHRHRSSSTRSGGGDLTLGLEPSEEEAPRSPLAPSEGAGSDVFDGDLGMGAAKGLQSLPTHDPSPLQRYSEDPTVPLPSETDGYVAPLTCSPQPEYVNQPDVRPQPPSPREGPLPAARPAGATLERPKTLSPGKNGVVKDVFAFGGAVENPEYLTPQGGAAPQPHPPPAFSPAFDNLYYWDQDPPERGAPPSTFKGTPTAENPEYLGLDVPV
T1 sequence (P00533 25-1210): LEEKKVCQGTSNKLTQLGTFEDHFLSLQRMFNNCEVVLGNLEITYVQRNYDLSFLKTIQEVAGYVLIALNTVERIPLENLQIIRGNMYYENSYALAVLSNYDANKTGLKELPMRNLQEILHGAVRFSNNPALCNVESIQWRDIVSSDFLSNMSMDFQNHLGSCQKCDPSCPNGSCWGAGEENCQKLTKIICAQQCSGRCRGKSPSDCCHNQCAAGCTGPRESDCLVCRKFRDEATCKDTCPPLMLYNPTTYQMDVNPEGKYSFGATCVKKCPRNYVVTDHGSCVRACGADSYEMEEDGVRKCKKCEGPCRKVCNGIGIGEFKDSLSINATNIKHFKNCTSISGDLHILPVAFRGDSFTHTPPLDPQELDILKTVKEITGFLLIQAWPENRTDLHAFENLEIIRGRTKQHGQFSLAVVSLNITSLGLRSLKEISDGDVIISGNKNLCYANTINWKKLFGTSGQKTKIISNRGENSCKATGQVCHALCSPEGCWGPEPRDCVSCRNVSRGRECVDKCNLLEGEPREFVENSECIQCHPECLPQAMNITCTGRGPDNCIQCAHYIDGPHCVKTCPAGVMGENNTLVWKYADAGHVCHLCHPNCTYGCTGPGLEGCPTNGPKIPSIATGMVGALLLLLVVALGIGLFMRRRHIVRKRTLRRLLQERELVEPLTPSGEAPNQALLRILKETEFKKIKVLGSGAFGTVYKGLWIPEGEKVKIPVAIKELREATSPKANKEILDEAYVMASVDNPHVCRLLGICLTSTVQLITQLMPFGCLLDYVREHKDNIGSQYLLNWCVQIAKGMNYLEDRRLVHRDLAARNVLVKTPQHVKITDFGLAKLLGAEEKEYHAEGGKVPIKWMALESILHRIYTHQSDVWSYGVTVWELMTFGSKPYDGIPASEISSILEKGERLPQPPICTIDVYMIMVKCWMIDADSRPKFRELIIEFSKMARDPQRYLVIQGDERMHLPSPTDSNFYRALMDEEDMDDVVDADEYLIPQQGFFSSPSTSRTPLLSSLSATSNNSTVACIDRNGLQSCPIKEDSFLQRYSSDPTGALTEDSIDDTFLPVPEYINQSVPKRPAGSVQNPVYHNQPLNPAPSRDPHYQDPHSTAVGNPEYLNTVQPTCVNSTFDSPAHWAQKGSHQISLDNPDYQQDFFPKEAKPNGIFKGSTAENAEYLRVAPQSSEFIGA
T2 sequence (P04626 23-1255): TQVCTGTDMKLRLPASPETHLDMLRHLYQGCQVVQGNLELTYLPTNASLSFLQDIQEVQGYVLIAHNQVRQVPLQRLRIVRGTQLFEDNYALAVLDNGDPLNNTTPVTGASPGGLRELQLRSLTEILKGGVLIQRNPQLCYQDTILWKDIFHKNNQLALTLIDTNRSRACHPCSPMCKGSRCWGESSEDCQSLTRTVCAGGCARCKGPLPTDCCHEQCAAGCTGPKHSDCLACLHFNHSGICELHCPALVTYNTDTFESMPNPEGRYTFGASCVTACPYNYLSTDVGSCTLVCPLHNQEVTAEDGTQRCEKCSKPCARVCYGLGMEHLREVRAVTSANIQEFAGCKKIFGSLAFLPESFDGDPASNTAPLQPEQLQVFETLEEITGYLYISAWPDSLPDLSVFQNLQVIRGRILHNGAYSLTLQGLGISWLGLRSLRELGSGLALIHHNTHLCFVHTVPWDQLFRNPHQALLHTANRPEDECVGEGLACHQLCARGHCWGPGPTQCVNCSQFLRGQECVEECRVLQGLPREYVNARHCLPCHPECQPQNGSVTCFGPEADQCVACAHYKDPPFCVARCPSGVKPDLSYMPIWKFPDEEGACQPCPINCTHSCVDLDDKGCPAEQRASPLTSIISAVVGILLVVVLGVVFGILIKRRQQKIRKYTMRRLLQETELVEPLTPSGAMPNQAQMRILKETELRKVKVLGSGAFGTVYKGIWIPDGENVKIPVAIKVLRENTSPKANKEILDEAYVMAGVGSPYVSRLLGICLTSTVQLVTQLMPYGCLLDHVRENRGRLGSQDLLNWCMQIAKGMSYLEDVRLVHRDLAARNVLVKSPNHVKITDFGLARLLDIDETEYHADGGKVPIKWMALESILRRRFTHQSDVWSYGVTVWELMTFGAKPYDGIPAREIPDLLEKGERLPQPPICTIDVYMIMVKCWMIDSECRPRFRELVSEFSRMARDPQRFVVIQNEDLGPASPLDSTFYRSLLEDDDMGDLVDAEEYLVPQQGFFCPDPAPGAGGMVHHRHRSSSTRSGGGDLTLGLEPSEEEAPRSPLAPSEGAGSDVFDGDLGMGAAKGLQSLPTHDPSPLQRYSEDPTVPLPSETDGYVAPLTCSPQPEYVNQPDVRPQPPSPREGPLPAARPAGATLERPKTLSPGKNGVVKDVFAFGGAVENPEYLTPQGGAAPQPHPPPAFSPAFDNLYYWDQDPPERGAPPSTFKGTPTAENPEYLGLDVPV

| IC50 [2] | IC50 [3] | Structure (SMILES) | GI50 [1] |
| --- | --- | --- | --- |
| 604 nM | 17.1 nM | C=C1CCN(c2ccc3ncnc(Nc4ccc(Oc5ccc6c(c5)ncn6C)c(C)c4)c3c2)C1=O [Compound 27, 1-[4-({3-methyl-4-[(1-methyl-1,3-benzodiazol-5-yl)oxy]phenyl}amino)quinazolin-6-yl]-3-methylidenepyrrolidin-2-one] | 11.3 nM |
| 355 nM | 7.77 nM | C=C1CCN(c2cc3c(Nc4ccc(Oc5ccn6ncnc6c5)c(C)c4)ncnc3cn2)C1=O [Compound 28, 1-(4-((4-([1,2,4]triazolo[1,5-a]pyridin-7-yloxy)-3-methylphenyl)amino)pyrido[3,4-d]pyrimidin-6-yl)-3-methylenepyrrolidin-2-one] | 5.32 nM |
| 68.4 nM | 12.3 nM | C=C1C(=O)N(c2ccc3ncnc(Nc4ccc(Oc5ccn6ncnc6c5)c(C)c4)c3c2)CC1CN(C)C (stereo not drawn) [Compound 30, 4-[(dimethylamino)methyl]-1-{4-[(3-methyl-4-{[1,2,4]triazolo [1,5-a]pyridin-7-yloxy}phenyl)amino]quinazolin-6-yl}-3-methylidenepyrrolidin-2-one; formic acid] | 17.4 nM |
| 117 nM | 15.9 nM | C=C1C(=O)N(c2cc3c(Nc4ccc(Oc5ccn6ncnc6c5)c(C)c4)ncnc3cn2)C[C@@H]1C [Compound 31] | 3.78 nM |
| 1140 nM | 18.5 nM | Cc1cc(Nc2ncnc3ccc(N4CC/C(=C\CN(C)C)C4=O)cc23)ccc1Oc1ccc2c(c1)ncn2C [Compound 33, (E)-3-(2-(dimethylamino)ethylidene)-1-(4-((3-methyl-4-((1-methyl-1H-benzo[d]imidazol-5-yl)oxy)phenyl)amino)quinazolin-6-yl)pyrrolidin-2-one] | 15.8 nM |
| 1020 nM | 26.9 nM | C=C1C(=O)N(c2ccc3ncnc(Nc4ccc(Oc5ccc6c(c5)ncn6C)c(C)c4)c3c2)C[C@H]1C [Compound 37, (S)-4-methyl-1-(4-((3-methyl-4-((1-methyl-1H-benzo [d]imidazol-5-yl)oxy)phenyl)amino)quinazolin-6-yl)-3-methylenepyrrolidin-2-one] | 17.4 nM |
| 407 nM | 29.3 nM | Cc1cc(Nc2ncnc3ccc(N4CC/C(=C\CN(C)C)C4=O)nc23)ccc1Oc1ccc2c(c1)ncn2C [Compound 38, (3E)-3-[2-(dimethylamino)ethylidene]-1-[4-({3-methyl-4-[(1-methyl-1,3-benzodiazol-5-yl)oxy]phenyl}amino)pyrido[3,2-d]pyrimidin-6-yl]pyrrolidin-2-one] | 2 nM |
| > 10000 nM | 30.7 nM | Cc1cc(Nc2ncnc3ccc(N4CC/C(=C\CCN5CCN(C)CC5)C4=O)cc23)ccc1Oc1ccn2ncnc2c1 [Compound 40, (3E)-1-{4-[(3-methyl-4-{[1,2,4]triazolo[1,5-a]pyridin-7-yloxy}phenyl)amino]quinazolin-6-yl}-3-[3-(4-methylpiperazin-1-yl)propylidene]pyrrolidin-2-one] | > 500 nM |
| 2220 nM | 28.9 nM | Cc1cc(Nc2ncnc3ccc(N4CC/C(=C\CN(C)C)C4=O)nc23)ccc1Oc1ccn2ncnc2c1 [Compound 47, (E)-1-(4-((4-([1,2,4]triazolo[1,5-a]pyridin-7-yloxy)-3-methylphenyl)amino)pyrido[3,2-d]pyrimidin-6-yl)-3-(2-(dimethylamino)ethylidene)pyrrolidin-2-one] | 4.08 nM |
| 173 nM | 13.9 nM | Cc1ccc(Oc2ccc(Nc3ncnc4ccc(N5CC/C(=C\CN(C)C)C5=O)nc34)cc2C)cn1 [Compound 49, (E)-3-(2-(dimethylamino)ethylidene)-1-(4-((3-methyl-4-((6-methylpyridin-3-yl)oxy)phenyl)amino)pyrido[3,2-d]pyrimidin-6-yl)pyrrolidin-2-one] | 0.999 nM |

The remaining lines, values behind:

| Structure (SMILES) | IC50 [2] | IC50 [3] | GI50 [1] |
| --- | --- | --- | --- |
| C=C1C(=O)N(c2ccc3ncnc(Nc4ccc(Oc5ccn6ncnc6c5)c(C)c4)c3c2)CC1CO (stereo not drawn) [Compound 29, 4-(hydroxymethyl)-1-{4-[(3-methyl-4-{[1,2,4]triazolo[1,5-a]pyridin-7-yloxy}phenyl)amino]quinazolin-6-yl}-3-methylidenepyrrolidin-2-one] | 405 nM | 5.86 nM | 31.5 nM |
| C=C1C(=O)N(c2cc3c(Nc4ccc(Oc5ccn6ncnc6c5)c(C)c4)ncnc3cn2)C[C@H]1C [Compound 32, (4S)-4-methyl-1-{4-[(3-methyl-4-{[1,2,4]triazolo[1,5-a]pyridin-7-yloxy}phenyl)amino]pyrido[3,4-d]pyrimidin-6-yl}-3-methylidenepyrrolidin-2-one] | 8180 nM | 72.1 nM | 134 nM |
| C=C1C(=O)N(c2ccc3ncnc(Nc4ccc(Cc5ccn6ncnc6c5)c(C)c4)c3c2)C[C@H]1C [Compound 36, (S)-1-(4-((4-([1,2,4]triazolo[1,5-a]pyridin-7-ylmethyl)-3-methylphenyl)amino)quinazolin-6-yl)-4-methyl-3-methylenepyrrolidin-2-one] | 2330 nM | 40.9 nM | 80.5 nM |
| C=C1CCN(c2cc3c(Nc4ccc(Oc5ccc6c(c5)ncn6C)c(C)c4)ncnc3cn2)C1=O [Compound 39, 1-(4-((3-methyl-4-((1-methyl-1H-benzo[d]imidazol-5-yl)oxy)phenyl)amino)pyrido[3,4-d]pyrimidin-6-yl)-3-methylenepyrrolidin-2-one] | 497 nM | 36.2 nM | 14.6 nM |
| C=C1C(=O)N(c2ccc3ncnc(Nc4ccc(Oc5ccc6c(c5)ncn6C)c(C)c4)c3c2)C[C@@H]1C [Compound 41, (R)-4-methyl-1-(4-((3-methyl-4-((1-methyl-1H-benzo[d]imidazol-5-yl)oxy)phenyl)amino)quinazolin-6-yl)-3-methylenepyrrolidin-2-one] | 4490 nM | 29 nM | 29 nM |
| Cc1cc(Nc2ncnc3ccc(N4CC/C(=C\CCN(C)C)C4=O)cc23)ccc1Oc1ccc2c(c1)ncn2C [Compound 44, (3E)-3-[3-(dimethylamino)propylidene]-1-[4-({3-methyl-4-[(1-methyl-1,3-benzodiazol-5-yl)oxy]phenyl}amino)quinazolin-6-yl]pyrrolidin-2-one] | 1940 nM | 26.2 nM | 14.5 nM |
| Cc1cc(Nc2ncnc3cnc(N4CC/C(=C\CN(C)C)C4=O)cc23)ccc1Oc1ccc2c(c1)ncn2C [Compound 45, (E)-3-(2-(dimethylamino)ethylidene)-1-(4-((3-methyl-4-((1-methyl-1H-benzo[d]imidazol-5-yl)oxy)phenyl)amino)pyrido[3,4-d]pyrimidin-6-yl)pyrrolidin-2-one] | 670 nM | 22.6 nM | 1.79 nM |
| C=C1CCN(c2ccc3ncnc(Nc4ccc(Oc5ccc6nccnc6c5)c(C)c4)c3c2)C1=O [Compound 46, 1-(4-((3-methyl-4-(quinoxalin-6-yloxy)phenyl)amino)quinazolin-6-yl)-3-methylenepyrrolidin-2-one] | 759 nM | 65.1 nM | 53.9 nM |
| Cc1cc(Nc2ncnc3ccc(N4CC/C(=C\CCN(C)C)C4=O)nc23)ccc1Oc1ccn2ncnc2c1 [Compound 48, (3E)-3-[3-(dimethylamino)propylidene]-1-{4-[(3-methyl-4-{[1,2,4]triazolo[1,5-a]pyridin-7-yloxy}phenyl)amino]pyrido[3,2-d]pyrimidin-6-yl}pyrrolidin-2-one] | 63.5 nM | 12.4 nM | 0.837 nM |
